Where “and” joins values, the source holds several entries; their conditions need not be identical. Equal entries are not always repeated. Where two headings read alike, the source gives them in different places.
What was measured:
[1] = target: T1, SUV420H2 (Homo sapiens, UniProt Q86Y97); test: Methyltransferase selectivity assay (SPA); format: biochemical
T1 construct: purchased Structural Genomics Consortium (SGC Toronto) in-house methyltransferase panel
Protocol: Selectivity against methyltransferases were determined as described previously. Details of the assays are described in the supplementary methods.
(§1) Methyltransferase selectivity assay1
The effect of chemical probes and negative controls on the methyltransferase activities of protein, DNA and RNA methyltransferases was tested by radiometric assays using 3H-SAM. For proteins such as MLL1 trimeric, MLL3 pentameric, EZH1 (PRC2) pentameric, and EZH2 (PRC2) trimeric complexes, as well as G9a, GLP, SUV39H1, SUV39H2, SUV420H1, SUV420H2, SETD2, SETD8, SETDB1, SETD7, PRMT1, PRMT3, PRMT4, PRMT5/ MEP50 complex, PRMT6, PRMT7, PRMT8, PRMT9, PRDM9, SMYD2, SMYD3, DNMT1, and BCDIN3D the incorporation of a tritium-labeled methyl group into biotinylated substrate was monitored using scintillation proximity assay (SPA). Briefly, a 10 µL reaction containing 3H-SAM and substrate at concentrations close to the apparent Km values for each enzyme (balanced conditions) was prepared. The reactions were quenched with 10 µL of 7.5 M guanidine hydrochloride; 180 µL of 20 mM Tris buffer (pH 8.0) were added, and the mixture was transferred to a 96-well FlashPlate and incubated for 1 h. The counts per minute (CPM) was measured on a TopCount plate reader. The CPM in the absence of compound or enzyme was defined as 100% activity and background (0%), respectively, for each dataset. […]

[2] = tested on: 32 protein, DNA and RNA methyltransferases; test: Methyltransferase selectivity assay (whole panel); format: biochemical; conditions: tested at 1 µM and 10 µM of compounds
Protocol: Selectivity against methyltransferases were determined as described previously. Details of the assays are described in the supplementary methods. […]
were tested at (circle) 1 µM and (triangle) 10 µM of compounds. PRDM9 was the only methyltransferase in this panel of MTs that was inhibited by MRK -740.
Effect of both compounds on PRDM7 is presented in figure 1D in the main text. Each experiment was performed at two concentrations (1 and 10 µM) of compounds and in duplicate (n=2). Source data are provided as a Source Data file .
(§2) (1 picture or pasted object on this page, not shown here)
as §1
The effect of chemical probes and negative controls on the methyltransferase activities of protein, DNA and RNA methyltransferases was tested by radiometric assays using 3H-SAM. For proteins such as MLL1 trimeric, MLL3 pentameric, EZH1 (PRC2) pentameric, and EZH2 (PRC2) trimeric complexes, as well as G9a, GLP, SUV39H1, SUV39H2, SUV420H1, SUV420H2, SETD2, SETD8, SETDB1, SETD7, PRMT1, PRMT3, PRMT4, PRMT5/ MEP50 complex, PRMT6, PRMT7, PRMT8, PRMT9, PRDM9, SMYD2, SMYD3, DNMT1, and BCDIN3D the incorporation of a tritium-labeled methyl group into biotinylated substrate was monitored using scintillation proximity assay (SPA). […] The counts per minute (CPM) was measured on a TopCount plate reader. […]

[3] = tested on: HEK293T cells; test: Cell growth, IncuCyte ZOOM cell number; format: cell-based; conditions: for HEK293T cell growth, toxicity (in words): 24 h of treatment; for HEK293T cytotoxicity (in words): 4 days of treatment; for Cell growth (Cell#): technical replicates
Protocol: HEK293T or MCF7 cells were seeded on 96-well plates and the following day treated with compounds for indicated time. Cell number was determined with Vybrant® DyeCycle™ Green using IncuCyte™ ZOOM live cell imaging device (Essen Bioscence) and analyzed with IncuCyte™ ZOOM (2015A) software.
(top graphs) and MCF7 cells (bottom graph). Cells were treated with compounds for 2 and 4 days or 5 days in case of MCF7. Cell number was measured using IncuCyte™ ZOOM live cell imaging device. The results are MEAN +/- SEM, n=3 (technical replicates). Source data are provided as a Source Data file.
as §2

[4] = 10µM compound, Exp1, Exp2, 10 µM
[5] = HEK293, 2 day treatement, 10 µM
[6] = HEK293, 4 day treatement, 0.3 µM
[7] = HEK293, 4 day treatement, 10 µM

T1 sequence (Q86Y97 whole entry): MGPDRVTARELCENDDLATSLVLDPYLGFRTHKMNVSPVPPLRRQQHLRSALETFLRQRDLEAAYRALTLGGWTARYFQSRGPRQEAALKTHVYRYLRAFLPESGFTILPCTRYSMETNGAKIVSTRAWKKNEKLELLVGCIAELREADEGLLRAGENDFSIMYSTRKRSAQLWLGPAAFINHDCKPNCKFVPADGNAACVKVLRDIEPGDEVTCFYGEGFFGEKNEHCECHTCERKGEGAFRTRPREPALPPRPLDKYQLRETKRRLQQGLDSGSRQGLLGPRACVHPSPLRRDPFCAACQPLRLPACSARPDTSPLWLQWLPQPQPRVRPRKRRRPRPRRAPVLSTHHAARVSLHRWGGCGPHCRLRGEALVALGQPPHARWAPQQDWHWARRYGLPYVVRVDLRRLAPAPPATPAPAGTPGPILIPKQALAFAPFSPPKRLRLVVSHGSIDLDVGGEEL

SMILES | activity at 1 µM ([1]; 1µM compound, Exp1, Exp2) [%] | activity at 10 µM ([1]; 10µM compound, Exp1, Exp2) [%] | Activity % [1, 4] [%] | Methyltransferase selectivity (in words) [2] | HEK293T cell growth, toxicity (in words) ([3]; 10 µM) | HEK293T cytotoxicity (in words) ([3]; 10 µM) | Cell growth (Cell#) ([3]; HEK293, 2 day treatement, 1 µM) | Cell growth (Cell#) ([3]; HEK293, 2 day treatement, 3 µM) | Cell growth (Cell#) ([3]; HEK293, 2 day treatement, 5 µM) | Cell growth (Cell#) [3, 5] | Cell growth (Cell#) [3, 6] | Cell growth (Cell#) ([3]; HEK293, 4 day treatement, 1 µM) | Cell growth (Cell#) ([3]; HEK293, 4 day treatement, 3 µM) | Cell growth (Cell#) [3, 7] | Activity % ([1]; 1µM compound, Exp1, Exp2, 1 µM) [%] | activity at 1 µM ([1]; 1µM compound, Exp1, Exp2, read-out: Activity %) [%] | activity at 10 µM ([1]; 10µM compound, Exp1, Exp2, read-out: Activity %) [%]
COc1cc(OC)cc(-c2noc(N3CCN(C)C4(CCN(c5ccccc5)CC4)C3)n2)c1 [MRK-740 -NC] | 106 | 98 | 103 | – | – | – | – | – | – | – | – | – | – | – | – | – | –
COc1cc(OC)cc(-c2noc(N3CCN(C)C4(CCN(c5ccccc5)CC4)C3)n2)c1 [MRK-740-NC] | – | – | – | no effect on activity of any of 33 MTs | some toxicity | cytotoxicity was observed | 131.284 % control and 117.713 % control and 90.9177 % control | 132.069 % control and 120.302 % control and 91.1588 % control | 115.543 % control and 108.951 % control and 80.3231 % control | 46.5996 % control and 35.6574 % control and 30.4049 % control | 101.286 % control and 102.18 % control and 103.656 % control | 105.145 % control and 104.341 % control and 101.342 % control | 105.432 % control and 102.893 % control and 103.306 % control | 42.1082 % control and 39.7636 % control and 39.5419 % control | – | – | –
COc1cc(OC)cc(-c2noc(N3CCN(C)C4(CCN(c5ccnc(C)c5)CC4)C3)n2)c1 [MRK-740] | – | – | 103 | selective | some toxicity | cytotoxicity was observed | 84.8973 % control and 124.131 % control and 116.53 % control | 73.843 % control and 124.215 % control and 124.008 % control | 68.7811 % control and 110.358 % control and 122.96 % control | 55.0249 % control and 90.6823 % control and 84.1686 % control | 115.326 % control and 111.309 % control and 103.491 % control | 115.93 % control and 116.134 % control and 111.504 % control | 115.346 % control and 109.669 % control and 118.771 % control | 47.3939 % control and 45.1607 % control and 39.6851 % control | 95 | 97 | 100

From publication PMC6917776, “Discovery of a chemical probe for PRDM9” (Nature Communications, 2019)
